Results reported in patent publication US5462935A, “Cephalosporin compounds” (Lucky Limited, priority 1990, dated 1995).
Converted amounts (≈) assume the structure as drawn.

Columns and labels:
[1] = acute toxicity test, intravenous; conditions: mouse, in vivo, ICR mice, observed for 14 days
Text: The results are shown in the last row of Table 2.

[2] = test system: Serratia marcescens ATCC 27117; assay: minimal inhibitory concentration, two-fold agar dilution; assay type: cell-based; conditions: ATCC27117, Muller-Hinton agar, 37° C., 20 hours
Description: (§1) These NIC values were taken by employing a two-fold dilution method: that is, two-fold serial dilutions of each of the test compounds were made and dispersed in a Muller-Hinton agar medium; 2 μl of the standard test strain which had the 10^7 CFU (Colony Forming Unit) per ml was inoculated on the medium; and these were incubated at 37° C. for 20 hours.

[3] = test system: Micrococcus luteus ATCC 9341; assay: as above; assay type: cell-based; conditions: ATCC9341, Muller-Hinton agar, 37° C., 20 hours
Description: as §1

[4] = test system: Proteus mirabilis ATCC 25933; assay: as above; assay type: cell-based; conditions: ATCC25933, Muller-Hinton agar, 37° C., 20 hours
Description: as §1

[5] = test system: Pseudomonas aerugionsa ATCC 27853; assay: as above; assay type: cell-based; conditions: ATCC27853, Muller-Hinton agar, 37° C., 20 hours
Description: as §1

[6] = test system: Pseudomonas aerugionsa ATCC 10145; assay: as above; assay type: cell-based; conditions: ATCC10145, Muller-Hinton agar, 37° C., 20 hours
Description: as §1

[7] = test system: Escherichia coli ATCC 25922; assay: as above; assay type: cell-based; conditions: ATCC25922, Muller-Hinton agar, 37° C., 20 hours
Description: as §1

[8] = test system: Proteus vulgaris ATCC 6059; assay: as above; assay type: cell-based; conditions: ATCC6059, Muller-Hinton agar, 37° C., 20 hours
Description: as §1

[9] = test system: Morganella morganii ATCC 8076h; assay: as above; assay type: cell-based; conditions: ATCC8076H, 20 h
Description: as §1

[10] = test system: Citrobacter freundii ATCC 8090; assay: as above; assay type: cell-based; conditions: ATCC8090, Muller-Hinton agar, 37° C., 20 hours
Description: as §1

[11] = test system: Shigella sonnei ATCC 11060; assay: as above; assay type: cell-based; conditions: ATCC11060, Muller-Hinton agar, 37° C., 20 hours
Description: as §1

[12] = test system: Streptococcus faecalis ATCC 29212; assay: as above; assay type: cell-based; conditions: Enterococcus faecalis, ATCC29212, Muller-Hinton agar, 37° C., 20 hours
Description: as §1

[13] = test system: Pseudomonas aeruginosa ATCC 25619; assay: as above; assay type: cell-based; conditions: ATCC25619, Muller-Hinton agar, 37° C., 20 hours
Description: as §1

[14] = test system: Shigella flexneri ATCC 11836; assay: as above; assay type: cell-based; conditions: ATCC11836, Muller-Hinton agar, 37° C., 20 hours
Description: as §1

[15] = test system: Staphylococcus epidermidis ATCC 10537; assay: as above; assay type: cell-based; conditions: ATCC10537, Muller-Hinton agar, 37° C., 20 hours
Description: as §1

[16] = test system: Providencia rettgeri ATCC 9250; assay: as above; assay type: cell-based; conditions: ATCC9250, Muller-Hinton agar, 37° C., 20 hours
Description: as §1

[17] = test system: Acinetobacter calcoaceticus ATCC 15473; assay: as above; assay type: cell-based; conditions: ATCC15473, Muller-Hinton agar, 37° C., 20 hours
Description: as §1

[18] = test system: Enterobacter aerogenes ATCC 29751; assay: as above; assay type: cell-based; conditions: Klebsiella aerogenes, ATCC29751, 20 h
Description: as §1

[19] = test system: Bacillus megaterium ATCC 9885; assay: as above; assay type: cell-based; conditions: Priestia megaterium, ATCC9885, 20 h
Description: as §1

ATCC 12228 = assay: as above; assay type: cell-based; conditions: Staphylococcus faecalis, ATCC12228, 20 h
Description: as §1

[20] = test system: Klebsiella pneumoniae ATCC 10031; assay: as above; assay type: cell-based; conditions: ATCC10031, Muller-Hinton agar, 37° C., 20 hours
Description: as §1

[21] = test system: Salmonella typhimurium ATCC 14028; assay: as above; assay type: cell-based; conditions: Salmonella enterica, Muller-Hinton agar, 37° C., 20 hours
Description: as §1

[22] = test system: Bacillus cereus ATCC 11778; assay: as above; assay type: cell-based; conditions: Bacillus cereus, ATCC11778, 20 h
Description: as §1

[23] = test system: Escherichia coli ATCC 10536; assay: as above; assay type: cell-based; conditions: ATCC10536, Muller-Hinton agar, 37° C., 20 hours
Description: as §1

[24] = test system: Enterobacter cloacae ATCC 27508; assay: as above; assay type: cell-based; conditions: ATCC27508, Muller-Hinton agar, 37° C., 20 hours
Description: as §1

[25] = test system: Staphylococcus aureus ATCC 6638p; assay: as above; assay type: cell-based; conditions: ATCC6638P, 20 h
Description: as §1

[26] = in vivo absorbency test (plasma concentration, pharmacokinetic parameters); set-up: species or system SD rats (male); conditions: rat, in vivo, iv, 20 mg/kg
Description: In addition to the in vitro tests described above, in vivo absorbency tests for the two selected compounds of formulas (I-S-1) and (I-R-1), along with Ceftadizime, were carried out by administering intravenously, in a dose of 20 mg/kg, each of these two compounds into SD rats (male) weighing 220 to 340 g; […], which were analyzed by employing the bio-assay or agar well method. About 10 to 15 rats were used for each of the compounds.
Notes: (1) Two-Compartment Model
(3) Tested Animal: Rats(male; 220-340 g)

| SMILES | MIC [2] [µg/mL] | MIC [3] [µg/mL] | MIC [4] [µg/mL] | MIC [5] [µg/mL] | MIC [6] [µg/mL] | MIC [8] [µg/mL] | MIC [9] [ng/mL] | MIC [10] [µg/mL] | MIC [11] [µg/mL] | MIC [12] [µg/mL] | MIC [13] [µg/mL] | MIC [14] [µg/mL] | MIC [15] [µg/mL] | MIC [17] [µg/mL] | MIC [18] [µg/mL] | MIC [19] [µg/mL] | MIC (ATCC 12228) [µg/mL] | MIC [20] [µg/mL] | MIC [21] [µg/mL] | MIC [22] [µg/mL] | other results |
| --- | --- | --- | --- | --- | --- | --- | --- | --- | --- | --- | --- | --- | --- | --- | --- | --- | --- | --- | --- | --- | --- |
| C[C@H](O/N=C(\C(=O)NC1C(=O)N2C(C(=O)[O-])=C(CSc3nc(N)cc(N)[n+]3-c3ccccc3)CS[C@H]12)c1csc(N)n1)C(=O)O (stereo partly drawn) [I-S-5, 7-[(Z)-2-(2-aminothiazol-4-yl)-2-[(S)-1-carboxyeth-1-oxyimino]acetamido]-3-[(4,6-diamino-1-phenylpyrimidinium-2-yl)thiomethyl]-3-cephem-4-carboxylate] | 0.5 (≈ 0.744 µM) | 0.25 (≈ 0.372 µM) | 0.13 (≈ 0.194 µM) | 4 (≈ 5.95 µM) | 8 (≈ 11.9 µM) | 0.063 (≈ 0.0938 µM) | ≤ 8 | 0.13 (≈ 0.194 µM) | 0.25 (≈ 0.372 µM) | > 128 | 2 (≈ 2.98 µM) | 0.13 (≈ 0.194 µM) | 4 (≈ 5.95 µM) | 16 (≈ 23.8 µM) | 2 (≈ 2.98 µM) | 0.25 (≈ 0.372 µM) | 2 (≈ 2.98 µM) | 0.13 (≈ 0.194 µM) | 0.5 (≈ 0.744 µM) | 32 (≈ 47.6 µM) | LD50 at 336 h [1]: > 2000 mg/kg; MIC [7]: 0.25 µg/mL (≈ 0.372 µM); MIC [16]: ≤ 8 ng/mL; MIC [23]: 0.25 µg/mL (≈ 0.372 µM); MIC [24]: 0.031 µg/mL (≈ 0.0461 µM); MIC [25]: 4 µg/mL (≈ 5.95 µM) |
| CC[n+]1c(N)cc(N)nc1SCC1=C(C(=O)[O-])N2C(=O)C(NC(=O)/C(=N\O[C@@H](C)C(=O)O)c3csc(N)n3)[C@H]2SC1 (stereo partly drawn) [I-S-3, 7[(Z)-2-(2-aminothiazol-4-yl)-2[(S)-1-carboxyeth-1-oxyimino]acetamido]-3-[(4,6-diamino-1-ethylpyrimidinium-2-yl)thiomethyl]-3-cephem-4-carboxylate] | 0.063 (≈ 0.101 µM) | 0.25 (≈ 0.401 µM) | 0.031 (≈ 0.0497 µM) | 1 (≈ 1.6 µM) | 2 (≈ 3.21 µM) | 0.031 (≈ 0.0497 µM) | ≤ 8 | 0.031 (≈ 0.0497 µM) | 0.063 (≈ 0.101 µM) | > 128 | 1 (≈ 1.6 µM) | 0.016 (≈ 0.0257 µM) | 1 (≈ 1.6 µM) | 4 (≈ 6.41 µM) | 1 (≈ 1.6 µM) | 0.25 (≈ 0.401 µM) | 1 (≈ 1.6 µM) | 0.031 (≈ 0.0497 µM) | 0.13 (≈ 0.208 µM) | 32 (≈ 51.3 µM) | LD50 at 336 h [1]: > 3000 mg/kg; MIC [7]: 0.031 µg/mL (≈ 0.0497 µM); MIC [16]: ≤ 8 ng/mL; MIC [23]: 0.031 µg/mL (≈ 0.0497 µM); MIC [24]: ≤ 0.008 µg/mL; MIC [25]: 2 µg/mL (≈ 3.21 µM) |
| CC(C)(O/N=C(\C(=O)N[C@@H]1C(=O)N2C(C(=O)[O-])=C(C[n+]3ccccc3)CS[C@H]12)c1csc(N)n1)C(=O)O [CTZ, Ceftazidime, reference compound] | 0.25 (≈ 0.457 µM) | 0.5 (≈ 0.915 µM) | 0.063 (≈ 0.115 µM) | 1 (≈ 1.83 µM) | 2 (≈ 3.66 µM) | 0.063 (≈ 0.115 µM) | ≤ 8 | 0.13 (≈ 0.238 µM) | 0.13 (≈ 0.238 µM) | > 128 | 1 (≈ 1.83 µM) | 0.063 (≈ 0.115 µM) | 8 (≈ 14.6 µM) | 4 (≈ 7.32 µM) | 4 (≈ 7.32 µM) | 0.25 (≈ 0.457 µM) | 4 (≈ 7.32 µM) | 0.063 (≈ 0.115 µM) | 0.25 (≈ 0.457 µM) | 128 (≈ 234 µM) | AUC [26]: 28100 ng·h/mL; concentration at 10 min [26]: 50000 ng/mL; MIC [24]: 0.031 µg/mL (≈ 0.0567 µM); MIC [25]: 16 µg/mL (≈ 29.3 µM) |
